17 compounds from ChEMBL document CHEMBL1125987, “C8-substituted derivatives of 2-(dipropylamino)tetralin: Palladium-catalyzed synthesis and interactions with 5-HT1A-receptors” (Bioorg Med Chem Lett, 1991) can be followed below.

The target of assay [1] is T1, 5-hydroxytryptamine receptor 1A (Rattus norvegicus, UniProt P19327).
T1 sequence (P19327 whole entry): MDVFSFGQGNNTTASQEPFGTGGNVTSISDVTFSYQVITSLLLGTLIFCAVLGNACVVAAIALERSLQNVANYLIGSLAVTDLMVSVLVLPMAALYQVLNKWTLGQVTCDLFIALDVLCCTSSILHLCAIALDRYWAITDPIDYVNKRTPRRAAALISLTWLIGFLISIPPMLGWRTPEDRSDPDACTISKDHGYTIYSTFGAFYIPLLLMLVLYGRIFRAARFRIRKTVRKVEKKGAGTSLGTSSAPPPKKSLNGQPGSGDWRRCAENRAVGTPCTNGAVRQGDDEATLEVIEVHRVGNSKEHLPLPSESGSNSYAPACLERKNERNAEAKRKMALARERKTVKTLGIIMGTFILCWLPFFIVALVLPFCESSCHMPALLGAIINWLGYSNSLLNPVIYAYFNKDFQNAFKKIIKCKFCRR
Description: (§1) Inhibition of [3H]- 8-OH-DPAT binding to 5-HT1A-receptor from rat cerebral cortex membranes. It counts as cell membranes, Membrane.

Assay [2] has as its target T2, 5-hydroxytryptamine receptor 1A (Rattus norvegicus) (UniProt P19327).
T2 sequence (whole entry): T1 sequence (P19327 whole entry)
Kind of assay: Compound evaluated for inhibiting the binding of [3H]- 8-OH-DPAT to 5-HT1A-receptor from cerebral cortex membranes of rat measured as Hill coefficient. It is filed as tissue-based. The settings on record: Membrane.

Assay [3] has as its target T2, 5-hydroxytryptamine receptor 1A (Rattus norvegicus). The description is as §1. It is filed as cell membranes. The settings on record: Membrane.
The test system of assay [4] is Rattus norvegicus. Kind of assay: Agonism to 5-HT1A receptor was measured by the accumulation of DOPA in limbic region of non pretreated rats subcutaneously at 0.32 um/Kg. It is filed as functional, Limbic system.
The test system of assay [5] is Rattus norvegicus. Kind of assay: (§2) In vivo inhibition of L-uM/Kg. It is filed as functional.
Assay [6] relates to Rattus norvegicus. The assay is described as §2. It counts as functional. This is another data set of the same source.
For assay [7], the system named is Rattus norvegicus. Description: Agonism to 5-HT1A receptor was measured by the accumulation of DOPA in striatum of non pretreated rats subcutaneously at 0.32 um/Kg. It is filed as functional.

With `CCCN(CCC)[C@@H]1CCc2cccc(C(=O)OC)c2C1`, the inhibitory constant (Ki) in assay [1] amounted to 4.3 nM. Besides, the Hill coefficient in assay [2] was 0.9.

`CCCN(CCC)[C@@H]1CCc2cccc(C)c2C1`: affinity in assay [1] was put at a Ki of 34 nM. This compound showed a Hill coefficient in assay [3] of 1.13.

On to `CCCN(CCC)C1CCc2cccc(C(=O)O)c2C1` (racemic), for which the inhibitory constant (Ki) in assay [1] is > 300 nM.

Take `CCCN(CCC)[C@@H]1CCc2cccc(O)c2C1`: the Hill coefficient in assay [3] worked out at 0.97. Besides, the Activity was 414 ng (g of tissue)-1 in assay [4], 102 ng (g of tissue)-1 in assay [5], 51.2 ng (g of tissue)-1 in assay [6] and 1280 ng (g of tissue)-1 in assay [7].

In turn, `CCCN(CCC)[C@H]1CCc2ccccc2C1` came in with a Ki in assay [1] of 56 nM. In assay [3], the Hill coefficient is 0.83.

For `CCCN(CCC)[C@H]1CCc2cccc(OC)c2C1`, in assay [1], the affinity, expressed as Ki, was 2.8 nM. In assay [3], this compound registered a Hill coefficient of 0.96.

With `CCCN(CCC)[C@@H]1CCc2cccc(OS(=O)(=O)C(F)(F)F)c2C1`, the inhibition constant (Ki) in assay [1] was found to be 3.8 nM. Also, the Hill coefficient in assay [3] worked out at 0.79.

`CCCN(CCC)[C@H]1CCc2cccc(C)c2C1` had a Ki in assay [1] of 62 nM. The Hill coefficient in assay [3] worked out at 1.04.

In turn, `CCCN(CCC)[C@H]1CCc2cccc(O)c2C1` came in with a Hill coefficient in assay [3] of 0.86. Further, the Activity is given as 445 ng (g of tissue)-1 in assay [4], 112 ng (g of tissue)-1 in assay [5], 55.8 ng (g of tissue)-1 in assay [6] and 1136 ng (g of tissue)-1 in assay [7].

As to `CCCN(CCC)[C@@H]1CCc2cccc(OC)c2C1`, in assay [1], the inhibition constant (Ki) came to 1.5 nM. In addition, in assay [3], the Hill coefficient was 1.11.

In assay [1], `CCCN(CCC)[C@H]1CCc2cccc(-c3ccccc3)c2C1` displayed a Ki of 24 nM. In assay [3], this compound returned a Hill coefficient of 1.04.

In assay [1], `CCCN(CCC)[C@@H]1CCc2cccc(-c3ccccc3)c2C1` returned a Ki of 7.7 nM. The same compound gave a Hill coefficient in assay [3] of 1.

`CCCN(CCC)[C@H]1CCc2cccc(OS(=O)(=O)C(F)(F)F)c2C1`: in assay [1], the inhibition constant (Ki) was 9.5 nM. Also, the Hill coefficient in assay [3] was 0.83.

In the case of `CCCN(CCC)[C@@H]1CCc2ccccc2C1`, the Ki in assay [1] stood at 17 nM. This compound also had a Hill coefficient in assay [3] of 0.85.

`CCCN(CCC)[C@H]1CCc2cccc(C(C)=O)c2C1`: the inhibition constant (Ki) in assay [1] was determined as 0.7 nM. The same compound displayed a Hill coefficient in assay [3] of 0.71. In addition, the Activity in assay [4] is given as 365 ng (g of tissue)-1; in assay [5], 89 ng (g of tissue)-1; in assay [6], 58.5 ng (g of tissue)-1; in assay [7], 1098 ng (g of tissue)-1.

The compound `CCCN(CCC)[C@@H]1CCc2cccc(C(C)=O)c2C1` came in with a Ki in assay [1] of 1.8 nM. Moreover, the Activity in assay [4] is 399 ng (g of tissue)-1; in assay [5], 111 ng (g of tissue)-1; in assay [6] it was 62.1 ng (g of tissue)-1; in assay [7] it was 1101 ng (g of tissue)-1. In assay [2], this compound registered a Hill coefficient of 0.96.

Consider `CCCN(CCC)[C@H]1CCc2cccc(C(=O)OC)c2C1`, for which affinity in assay [1] was put at a Ki of 1.7 nM. The compound further returned a Hill coefficient in assay [2] of 1.01.

A word on the Ki: it is the equilibrium dissociation constant of an inhibitor or competing ligand from its target. High values mean weaker binding, low ones tighter binding. By Hill coefficient is commonly meant a measure of the steepness of the concentration-response curve.
